Reference: patent US6440440B1, “Biocidal benzylbiphenyl derivatives” (priority 1998, dated 2002)

What was measured:
Type in all cases: cell-based
Escherichia coli = assay: Primary bacteria screening; set-up: key: score: 3 = complete inhibition of growth, 2 = growth partially controlled; details: test compound concentration 500 μMol in tryptose broth agar, 27° C.
Description: (§1) The stock solutions with the test compounds were pipetted into multiwell plates and mixed with warm tryptose broth agar (2.6%) in order to reach a test compound concentration of 500 μMol. The medium was allowed to cool and subsequently inoculated with the bacteria. Wells were placed in an incubator at 27° C. and a relative humidity of 70%. After sufficient growth of the untreated cultures, the test was evaluated.
(§2) 3: complete inhibition of bacterial growth
(§3) 2: bacterial growth partially controlled

Pseudomonas aeruginosa = assay: Primary bacteria screening; set-up: key: score: 3 = complete inhibition of growth, 2 = growth partially controlled; details: test compound concentration 500 μMol in tryptose broth agar, 27° C.
Description: as §1, §2, §3

Providencia rettgeri = assay: Poison plate assay, combinations with BAC; details: BAC alone 80 μmol
Description: Biocidal activity against bacterial/yeast growth was determined with the poison plate assay. To obtain the required concentrations of the test compound, calculated amounts of stock solutions (DMSO) were pipetted into multi-well plates. Tryptose agar (except for Rhodotorula: PDA) was added aseptically and uniform distribution was obtained by shaking. Each plate was inoculated with a bacterial/yeast suspension. After incubation at 27° C. and 70% relative humidity, for a period long enough to allow complete growth of controls, percentage activity as compared to the control was scored.
Possible synergy was investigated using Limpel's formula (Richter, D. L., Pestic. Sci. 1987, 19: 309-315): [formula]
where EC is the expected additive response, or calculated activity, X is the observed percentage control when compound A is applied alone and Y is the observed percentage control when compound B is applied alone. Synergy was considered to occur when the observed effect, or measured activity, of a combination of both compounds was greater than the corresponding EC value.
The table C.7 to C.8 below enumerate the measured and calculated activities of BAC and compounds 20, 42 and 40 when tested as a single test compound or as a combination against Providencia rettgeri. BAC (benzalconium chloride) is a well-bacteride and was tested at a concentration of 40 and 80 μmol. Compounds 20, 40 and 42 were tested at a concentration of 10, 20, 40, 80 and 160 μmol. When a synergistic effect was observed, the “measured” and “calculated” activity are indicated with a bold typeface.

| Compound | E. coli (growth inhibition score) (Escherichia coli) | P. aeruginosa (growth inhibition score) (Pseudomonas aeruginosa) | Measured activity (Providencia rettgeri) |
| --- | --- | --- | --- |
| CN(C)CCCN(C)CCC(c1ccccc1)c1ccc(-c2ccccc2)cc1 (racemic) [Co. No. 38, (±)-N-[3-[(1,1′-biphenyl)-4-yl]-3-phenylpropyl]-N,N′,N′-trimethylpropanediamine] | 1 | 1 | – |
| Cl.Fc1ccc(-c2ccc(C(=C3CCN(C4CCNCC4)CC3)c3ccccc3)cc2)cc1 [compound 5] | 2 | 1 | – |
| CN(C)C1CCN(CCC(c2ccccc2)c2ccc(-c3ccccc3)cc2)CC1 (centres unmarked) [compound 32] | 1 | 1 | – |
| CN(C)CCC1CCN(CCC(c2ccccc2)c2ccc(-c3ccccc3)cc2)CC1.Cl.Cl (centres unmarked) [compound 28] | 1 | 1 | – |
| CN(C1CCNCC1)C1CCN(CCC(c2ccccc2)c2ccc(-c3ccccc3)cc2)CC1.Cl.Cl.Cl.O.O.O (centres unmarked) [compound 89] | 3 | 1 | – |
| CN(C)CCCN(C)CCCN(C)C(c1ccccc1)c1ccc(-c2ccccc2)cc1.Cl.Cl.Cl.O (centres unmarked) [compound 54] | 3 | 1 | – |
| CN(C)CCNCC=C(c1ccccc1)c1ccc(-c2ccccc2)cc1 [compound 37] | 1 | 1 | – |
| Fc1ccc(C(=C2CCN(C3CCNCC3)CC2)c2ccc(-c3ccc(F)cc3)cc2)cc1.O=C(O)/C=C/C(=O)O.O=C(O)/C=C/C(=O)O [compound 1] | 3 | 1 | – |
| CN(C)CCCN(C)CC=C(c1ccccc1)c1ccc(-c2ccccc2)cc1 [compound 35] | 3 | 1 | – |
| CN(C1CCN(C2CCNCC2)CC1)C(c1ccccc1)c1ccc(-c2ccccc2)cc1.O.O (centres unmarked) [compound 48] | 1 | 1 | – |
| NCCCNCCC(c1ccccc1)c1ccc(-c2ccccc2)cc1.NCCCNCCC(c1ccccc1)c1ccc(-c2ccccc2)cc1.O=C(O)C(O)C(O)C(=O)O.O=C(O)C(O)C(O)C(=O)O.O=C(O)C(O)C(O)C(=O)O (single isomer, unassigned) [compound 69] | 3 | 1 | – |
| CN(C)CCCN1CCC(N2CCC(C(c3ccccc3)c3ccc(-c4ccccc4)cc3)CC2)CC1.Cl.Cl.Cl (centres unmarked) [compound 15] | 1 | 1 | – |
| Cl.c1ccc(-c2ccc(C(c3ccccc3)N3CCC(N4CCCCC4)CC3)cc2)cc1 (centres unmarked) [compound 45] | 1 | 1 | – |
| CN(CCN)CCC(c1ccccc1)c1ccc(-c2ccccc2)cc1.O=c1[nH]sc2ccccc12 (centres unmarked) [compound 73] | 3 | 3 | – |
| CN(C)CCC1CCN(CC=C(c2ccccc2)c2ccc(-c3ccccc3)cc2)CC1.Cl.Cl [compound 24] | 1 | 1 | – |
| benzalconium chloride [BAC, reference compound] | – | – | 100% |
| O=S(=O)(O)c1ccc(-c2ccc(C(c3ccc(S(=O)(=O)O)cc3)C3CCN(C4CCNCC4)CC3)cc2)cc1 (centres unmarked) [compound 10] | 1 | 1 | – |
| CC(C)O.Cl.Cl.Cl.O.c1ccc(-c2ccc(C(c3ccccc3)C3CCN(C4CCN(C5CCNCC5)CC4)CC3)cc2)cc1 (centres unmarked) [compound 44] | 3 | 1 | – |
